Measured values published in patent US11207312B2, “Metallo-beta-lactamase inhibitors and methods of use thereof” (priority 2017, dated 2021).

Legend:
VIM-1 = VIM-1 (Pseudomonas aeruginosa (strain ATCC 15692 / DSM 22644 / CIP 104116 / JCM 14847 / LMG 12228 / 1C / PRS 101 / PAO1), UniProt A0A0F7KYQ8); assay: biochemical; settings: CCF2-FA fluorescence assay, 2 hours at 25° C.; read-out: VIM1 IC50
In short: (§1)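 Buffer 100 mM KH2PO4 pH 7, 0.005% Tween-20, 10 μM ZnSO4. NDM-1 1 pM, IMP-1 2 pM, VIM-1 30 pM final; CCF2-FA 1.25 μM. Cpd 20–0.00063 μM, 2 h, 25° C. Ex 405/Em 460 nm; IC50 via 4-parameter curve.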

IMP-1 = IMP-1 (Serratia marcescens, UniProt P52699); assay: biochemical; settings: CCF2-FA fluorescence assay, 2 hours at 25° C.; read-out: IMP1 IC50
In short: as §1

[1] = test system: Escherichia coli expressing NDM-1 (CLB30016); format: cell-based; settings: with imipenem 1 μg/ml; 95% inhibition of bacterial growth
In short: (§2)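 Clinical MBL-producing strains were grown overnight at 35 °C on blood agar, suspended in saline, diluted 1:100 into 1.1× CAMHB and exposed to test compound with imipenem at 1 μg/ml. After 22–24 h at 35 °C, absorbance gave MITC95: lowest compound concentration inhibiting 95% of growth.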

[2] = test system: Klebsiella pneumoniae expressing VIM-1 (IHMA599644); format: cell-based; settings: with imipenem 1 μg/ml; 95% inhibition of bacterial growth
In short: as §2

[3] = test system: Serratia marcescens expressing IMP-1 (CL5741); format: cell-based; settings: with imipenem 1 μg/ml; 95% inhibition of bacterial growth
In short: as §2

[4] = test system: P. aeruginosa MB9798 (efflux+, IMP-1 plasmid); settings: for MB9798 MITC95 P. aeruginosa uM Efflux WT: efflux + (MB9798) strain, imipenem at 2 μg/mL, in the presence of a class A, C, D serine β-lactamase inhibitor closely related to relebactam; for Efflux ratio: fold difference between efflux+ (MB9798) and efflux− (MB9799) strains
In short: (§3)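 Isogenic P. aeruginosa PAO1 strains (efflux+ and multiple-efflux-pump-disrupted) carrying plasmid IMP-1, with inducible AmpC, tested by broth microdilution. Imipenem and/or ceftazidime fixed, usually at CLSI breakpoint, plus fixed class A/C β-lactamase inhibitor; titrated MBL inhibitor concentration restoring susceptibility recorded and compared between strains as efflux fold difference.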

NDM-1 = NDM-1 (Klebsiella pneumoniae, UniProt C7C422); assay: biochemical; format: biochemical; settings: CCF2-FA fluorescence assay, 2 hours at 25° C.
In short: as §1

[5] = test system: P. aeruginosa MB9799 (efflux-, IMP-1 plasmid); format: cell-based, Pseudomonas aeruginosa; settings: efflux − (MB9799) strain; imipenem at 2 μg/mL; in the presence of a class A, C, D serine β-lactamase inhibitor closely related to relebactam
In short: as §3

VIM-2 = VIM-2 (Escherichia coli, UniProt Q5U7L7); assay: biochemical; settings: CCF2-FA fluorescence assay; read-out: VIM2 IC50

Sequence of IMP-1 (P52699 whole entry, looked up, species assumed): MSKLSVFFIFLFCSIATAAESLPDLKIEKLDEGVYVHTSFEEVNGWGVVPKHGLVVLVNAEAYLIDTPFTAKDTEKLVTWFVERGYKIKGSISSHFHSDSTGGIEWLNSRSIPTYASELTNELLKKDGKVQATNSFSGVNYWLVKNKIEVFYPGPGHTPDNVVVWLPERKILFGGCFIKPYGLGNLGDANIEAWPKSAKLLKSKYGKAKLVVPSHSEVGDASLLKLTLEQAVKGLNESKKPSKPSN
Sequence of NDM-1 (C7C422 whole entry, looked up, species assumed): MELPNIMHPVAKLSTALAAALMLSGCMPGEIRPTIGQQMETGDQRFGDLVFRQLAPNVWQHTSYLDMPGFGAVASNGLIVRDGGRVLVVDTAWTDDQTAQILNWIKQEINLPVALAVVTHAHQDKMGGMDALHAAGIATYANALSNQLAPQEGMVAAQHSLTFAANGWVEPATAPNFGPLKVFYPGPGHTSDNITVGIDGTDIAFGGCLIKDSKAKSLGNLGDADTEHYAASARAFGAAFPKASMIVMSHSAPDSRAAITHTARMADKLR

Structure (SMILES): NC[C@@H](O)CNS(=O)(=O)c1ccc(N2CCC3(CC2)CNC(N)=N3)c(-c2nn[nH]n2)c1S(N)(=O)=O [Example 171, (R)—N1-(3-amino-2-hydroxypropyl)-4-(2-amino-1,3,8-triazaspiro [4.5]dec-1-en-8-yl)-3-(2H-tetrazol-5-yl)benzene-1,2-disulfonamide]
- IC50 (VIM-1): 0.92 nM
- IC50 (IMP-1): 7.39 nM
- CLB30016 E. coli MITC95 NDM [1]: 0.39 µM
- IHMA599644 K. pneumoniae MITC95 VIM [2]: 0.78 µM
- CL5741 S. marcescens MITC95 IMP [3]: 0.78 µM
- MB9798 MITC95 P. aeruginosa uM Efflux WT [4]: 0.78 µM
- Efflux ratio [4]: 2.00
- IC50 (NDM-1): 3.38 nM
- MB9799 MITC95 P. aeruginosa uM Efflux Mutant [5]: 0.39 µM
- IC50 (VIM-2): 27.8 nM

Structure (SMILES): NCC1C2CCC1CN(c1ccc(S(=O)(=O)NC[C@H](O)CN)c(S(N)(=O)=O)c1-c1nn[nH]n1)C2 (stereo partly drawn) [Example 172, N1-((R)-3-amino-2-hydroxypropyl)-4-((1R,5S,8R)-8-(aminomethyl)-3-azabicyclo[3.2.1]octan-3-yl)-3-(2H-tetrazol-5-yl)benzene-1,2-disulfonamide]
- IC50 (VIM-1): 0.66 nM
- IC50 (IMP-1): 3.49 nM
- CLB30016 E. coli MITC95 NDM [1]: 1.17 µM
- IHMA599644 K. pneumoniae MITC95 VIM [2]: 2.34 µM
- CL5741 S. marcescens MITC95 IMP [3]: 2.34 µM
- MB9798 MITC95 P. aeruginosa uM Efflux WT [4]: 1.17 µM
- Efflux ratio [4]: 1.00
- IC50 (NDM-1): 2.15 nM
- MB9799 MITC95 P. aeruginosa uM Efflux Mutant [5]: 1.17 µM
- IC50 (VIM-2): 3.78 nM

Structure (SMILES): CC1(C)CN(c2ccc(S(=O)(=O)NC[C@H](O)CN)c(S(N)(=O)=O)c2-c2nn[nH]n2)CCN1CCO [Example 173, (R)-N1-(3-amino-2-hydroxypropyl)-4-(4-(2-hydroxyethyl)-3,3-dimethylpiperazin-1-yl)-3-(2H-tetrazol-5-yl)benzene-1,2-disulfonamide]
- IC50 (VIM-1): 13.7 nM
- IC50 (IMP-1): 10.5 nM
- CLB30016 E. coli MITC95 NDM [1]: 1.56 µM
- IHMA599644 K. pneumoniae MITC95 VIM [2]: 6.25 µM
- CL5741 S. marcescens MITC95 IMP [3]: 3.13 µM
- MB9798 MITC95 P. aeruginosa uM Efflux WT [4]: 6.25 µM
- Efflux ratio [4]: 4.00
- IC50 (NDM-1): 19.8 nM
- MB9799 MITC95 P. aeruginosa uM Efflux Mutant [5]: 1.56 µM
- IC50 (VIM-2): 114 nM

Structure (SMILES): NC[C@@H](O)CNS(=O)(=O)c1ccc(N2CCC(n3ccnc3)CC2)c(-c2nnn[nH]2)c1S(N)(=O)=O [Example 174, (R)-4-(4-(1H-imidazol-1-yl)piperidin-1-yl)-N1-(3-amino-2-hydroxypropyl)-3-(2H-tetrazol-5-yl)benzene-1,2-disulfonamide]
- IC50 (VIM-1): 0.07 nM
- IC50 (IMP-1): 0.36 nM
- CLB30016 E. coli MITC95 NDM [1]: 0.78 µM
- IHMA599644 K. pneumoniae MITC95 VIM [2]: 3.13 µM
- CL5741 S. marcescens MITC95 IMP [3]: 0.78 µM
- MB9798 MITC95 P. aeruginosa uM Efflux WT [4]: 3.13 µM
- Efflux ratio [4]: 2.00
- IC50 (NDM-1): 0.69 nM
- MB9799 MITC95 P. aeruginosa uM Efflux Mutant [5]: 1.56 µM
- IC50 (VIM-2): 0.22 nM

Structure (SMILES): NCC1=CCN(c2ccc(S(=O)(=O)NC[C@H](O)CN)c(S(N)(=O)=O)c2-c2nn[nH]n2)CC1 [Example 175, (R)-N1-(3-amino-2-hydroxypropyl)-4-(4-(aminomethyl)-5,6-dihydropyridin-1(2H)-yl)-3-(2H-tetrazol-5-yl)benzene-1,2-disulfonamide]
- IC50 (VIM-1): 0.24 nM
- IC50 (IMP-1): 3.66 nM
- CLB30016 E. coli MITC95 NDM [1]: 0.39 µM
- IHMA599644 K. pneumoniae MITC95 VIM [2]: 1.56 µM
- CL5741 S. marcescens MITC95 IMP [3]: 0.78 µM
- MB9798 MITC95 P. aeruginosa uM Efflux WT [4]: 1.56 µM
- Efflux ratio [4]: 2.00
- IC50 (NDM-1): 2.55 nM
- MB9799 MITC95 P. aeruginosa uM Efflux Mutant [5]: 0.78 µM
- IC50 (VIM-2): 4.18 nM

Structure (SMILES): CC1CN(c2ccc(S(=O)(=O)NC[C@H](O)CN)c(S(N)(=O)=O)c2-c2nn[nH]n2)CCN1CCO.O=C(O)C(F)(F)F.O=C(O)C(F)(F)F (stereo partly drawn) [Example 176, N1-((R)-3-amino-2-hydroxypropyl)-4-(4-(2-hydroxyethyl)-3-methylpiperazin-1-yl)-3-(2H-tetrazol-5-yl)benzene-1,2-disulfonamide bis(2,2,2-trifluoroacetate) salt]
- IC50 (VIM-1): 2.76 nM
- IC50 (IMP-1): 5.1 nM
- CLB30016 E. coli MITC95 NDM [1]: 0.39 µM
- IHMA599644 K. pneumoniae MITC95 VIM [2]: 1.56 µM
- CL5741 S. marcescens MITC95 IMP [3]: 0.39 µM
- MB9798 MITC95 P. aeruginosa uM Efflux WT [4]: 3.13 µM
- Efflux ratio [4]: 2.00
- IC50 (NDM-1): 2.51 nM
- MB9799 MITC95 P. aeruginosa uM Efflux Mutant [5]: 1.56 µM
- IC50 (VIM-2): 11.7 nM

Structure (SMILES): NC[C@@H](O)CNS(=O)(=O)c1ccc(N2CCC(C3COC(=O)N3)CC2)c(-c2nn[nH]n2)c1S(N)(=O)=O (stereo partly drawn) [Example 177, N1-((R)-3-amino-2-hydroxypropyl)-4-(4-(2-oxooxazolidin-4-yl)piperidin-1-yl)-3-(2H-tetrazol-5-yl)benzene-1,2-disulfonamide]
- IC50 (VIM-1): 0.15 nM
- IC50 (IMP-1): 0.19 nM
- CLB30016 E. coli MITC95 NDM [1]: 6.25 µM
- IHMA599644 K. pneumoniae MITC95 VIM [2]: 6.25 µM
- CL5741 S. marcescens MITC95 IMP [3]: 3.13 µM
- MB9798 MITC95 P. aeruginosa uM Efflux WT [4]: 1.56 µM
- Efflux ratio [4]: 1.00
- IC50 (NDM-1): 0.57 nM
- MB9799 MITC95 P. aeruginosa uM Efflux Mutant [5]: 1.56 µM
- IC50 (VIM-2): 0.66 nM

Structure (SMILES): NC[C@@H](O)CNS(=O)(=O)c1ccc(N[C@H]2CCC[C@H]2N)c(-c2nn[nH]n2)c1S(N)(=O)=O [Example 178, N1-((R)-3-amino-2-hydroxypropyl)-4-(((1S,2R)-2-aminocyclopentyl)amino)-3-(2H-tetrazol-5-yl)benzene-1,2-disulfonamide]
- IC50 (VIM-1): 80.1 nM
- IC50 (IMP-1): 101 nM
- CLB30016 E. coli MITC95 NDM [1]: 1.56 µM
- IHMA599644 K. pneumoniae MITC95 VIM [2]: 6.25 µM
- CL5741 S. marcescens MITC95 IMP [3]: 6.25 µM
- MB9798 MITC95 P. aeruginosa uM Efflux WT [4]: 25.00 µM
- Efflux ratio [4]: 4.00
- IC50 (NDM-1): 29 nM
- MB9799 MITC95 P. aeruginosa uM Efflux Mutant [5]: 6.25 µM
- IC50 (VIM-2): 132 nM

Structure (SMILES): NC[C@@H](O)CNS(=O)(=O)c1ccc(N[C@@H]2CCC[C@H]2N)c(-c2nn[nH]n2)c1S(N)(=O)=O [Example 179, N1-((R)-3-amino-2-hydroxypropyl)-4-(((1R,2R)-2-aminocyclopentyl)amino)-3-(2H-tetrazol-5-yl)benzene-1,2-disulfonamide]
- IC50 (VIM-1): 49.9 nM
- IC50 (IMP-1): 69.2 nM
- CLB30016 E. coli MITC95 NDM [1]: 0.78 µM
- IHMA599644 K. pneumoniae MITC95 VIM [2]: 12.50 µM
- CL5741 S. marcescens MITC95 IMP [3]: 6.25 µM
- MB9798 MITC95 P. aeruginosa uM Efflux WT [4]: 25.00 µM
- Efflux ratio [4]: 4.00
- IC50 (NDM-1): 26.2 nM
- MB9799 MITC95 P. aeruginosa uM Efflux Mutant [5]: 6.25 µM
- IC50 (VIM-2): 83.1 nM

Structure (SMILES): NS(=O)(=O)c1c(S(=O)(=O)N[C@@H]2CCNC2)ccc(NCC2CCNCC2)c1-c1nn[nH]n1 [Example 183, (R)-4-((piperidin-4-ylmethyl)amino)-N1-(pyrrolidin-3-yl)-3-(2H-tetrazol-5-yl)benzene-1,2-di sulfonamide]
- IC50 (VIM-1): 5.89 nM
- IC50 (IMP-1): 12.4 nM
- CLB30016 E. coli MITC95 NDM [1]: 1.17 µM
- IHMA599644 K. pneumoniae MITC95 VIM [2]: 2.34 µM
- CL5741 S. marcescens MITC95 IMP [3]: 1.56 µM
- MB9798 MITC95 P. aeruginosa uM Efflux WT [4]: 3.13 µM
- Efflux ratio [4]: 2.67
- IC50 (NDM-1): 6.26 nM
- MB9799 MITC95 P. aeruginosa uM Efflux Mutant [5]: 1.17 µM
- IC50 (VIM-2): 69.7 nM

Structure (SMILES): C[C@H](CN)NS(=O)(=O)c1ccc(N2CCC(CCN)CC2)c(-c2nn[nH]n2)c1S(N)(=O)=O [Example 185, (R)-4-(4-(2-aminoethyl)piperidin-1-yl)-N1-(1-aminopropan-2-yl)-3-(2H-tetrazol-5-yl)benzene-1,2-disulfonamide]
- IC50 (VIM-1): 0.04 nM
- IC50 (IMP-1): 0.6 nM
- CLB30016 E. coli MITC95 NDM [1]: 0.78 µM
- IHMA599644 K. pneumoniae MITC95 VIM [2]: 1.56 µM
- CL5741 S. marcescens MITC95 IMP [3]: 1.56 µM
- MB9798 MITC95 P. aeruginosa uM Efflux WT [4]: 0.78 µM
- Efflux ratio [4]: 1.00
- IC50 (NDM-1): 0.33 nM
- MB9799 MITC95 P. aeruginosa uM Efflux Mutant [5]: 0.78 µM
- IC50 (VIM-2): 0.71 nM
